Laboratory results reported in ChEMBL document CHEMBL5365394, “Design, synthesis and biological evaluation of novel spiro-quinazolinone derivatives as chitin synthase inhibitors and antifungal agents” (Eur J Med Chem, 2023).
Values after ≈ are worked out from the molar mass of the structure shown.

What was measured:
Aspergillus flavus [1] = experiment: Synergistic antifungal activity against Aspergillus flavus ATCC 16870 assessed as polyoxin B MIC incubated for 24 hrs by checkerboard broth microdilution method; format: functional
Aspergillus flavus [2] = experiment: Synergistic antifungal activity against Aspergillus flavus ATCC 16870 assessed as fluconazole MIC incubated for 24 hrs in by checkerboard broth microdilution method; format: functional
Cryptococcus neoformans [3] = experiment: Synergistic antifungal activity against Cryptococcus neoformans ATCC 32719 assessed as fluconazole MIC incubated for 24 hrs in by checkerboard broth microdilution method; format: functional
Cryptococcus neoformans [4] = experiment: Antifungal activity against Fluconazole-resistant Cryptococcus neoformans ATCC 32719R assessed as fungal growth inhibition; format: functional
Aspergillus flavus [5] = experiment: Antifungal activity against Fluconazole-resistant Aspergillus flavus ATCC 16870R assessed as fungal growth inhibition; format: functional
Candida albicans [6] = experiment: Antifungal activity against Candida albicans ATCC 76615 assessed as fungal growth inhibition incubated for 24 hrs by two-fold serial dilution method; format: functional
Aspergillus fumigatus [7] = experiment: Synergistic antifungal activity against Aspergillus fumigatus GIMCC 3.19 assessed as fluconazole MIC incubated for 24 hrs in by checkerboard broth microdilution method; format: functional
Cryptococcus neoformans [8] = experiment: Antifungal activity against Cryptococcus neoformans ATCC 32719 assessed as fungal growth inhibition incubated for 24 hrs by two-fold serial dilution method; format: functional
Cryptococcus neoformans [9] = experiment: Synergistic antifungal activity against Cryptococcus neoformans ATCC 32719 assessed as polyoxin B MIC incubated for 24 hrs in by checkerboard broth microdilution method; format: functional
Aspergillus flavus [10] = experiment: Antifungal activity against Aspergillus flavus ATCC 16870 assessed as inhibition of cell wall synthesis incubated for 24 hrs in absence of sorbitol; format: functional
Candida tropicalis = experiment: Inhibition of Candida tropicalis ATCC 750 chitin synthase using […] as substrate at 300 ug/ml incubated for 1 hr by absorbance based assay relative to control; details: dose 300.0 µg/ml
Candida albicans [11] = experiment: Antifungal activity against Fluconazole-resistant Candida albicans ATCC 76615R assessed as fungal growth inhibition; format: functional
Aspergillus fumigatus [12] = experiment: Antifungal activity against Aspergillus fumigatus GIMCC 3.19 assessed as inhibition of cell wall synthesis incubated for 24 hrs in presence of sorbitol; format: functional
Aspergillus fumigatus [13] = experiment: Antifungal activity against Aspergillus fumigatus GIMCC 3.19 assessed as fungal growth inhibition incubated for 24 hrs by two-fold serial dilution method; format: functional
Aspergillus fumigatus [14] = experiment: Antifungal activity against Aspergillus fumigatus GIMCC 3.19 assessed as inhibition of cell wall synthesis incubated for 24 hrs in absence of sorbitol; format: functional
Candida albicans [15] = experiment: Synergistic antifungal activity against Candida albicans ATCC 76615 assessed as polyoxin B MIC incubated for 24 hrs by checkerboard broth microdilution method; format: functional
Candida albicans [16] = experiment: Antifungal activity against Candida albicans ATCC 76615 assessed as inhibition of cell wall synthesis incubated for 24 hrs in presence of sorbitol; format: functional
Candida albicans [17] = experiment: Antifungal activity against Micafungin-resistant Candida albicans ATCC 76615R assessed as fungal growth inhibition; format: functional
Candida albicans [18] = experiment: Synergistic antifungal activity against Candida albicans ATCC 76615 assessed as fractional inhibitory concentration index incubated for 24 hrs in presence of polyoxin B by checkerboard broth microdilution method; format: functional
[19] = Inhibition of Candida tropicalis ATCC 750 chitin synthase using UDP-GlcNAc as substrate incubated for 1 hr by absorbance based assay
Aspergillus fumigatus [20] = experiment: Antifungal activity against Fluconazole-resistant Aspergillus fumigatus GIMCC 3.19R assessed as fungal growth inhibition; format: functional
Candida albicans [21] = experiment: Additive antifungal activity against Candida albicans ATCC 76615 assessed as fractional inhibitory concentration index incubated for 24 hrs in presence of fluconazole by checkerboard broth microdilution method; format: functional
Aspergillus fumigatus [22] = experiment: Synergistic antifungal activity against Aspergillus fumigatus GIMCC 3.19 assessed as polyoxin B MIC incubated for 24 hrs by checkerboard broth microdilution method; format: functional
Aspergillus fumigatus [23] = experiment: Synergistic antifungal activity against Aspergillus fumigatus GIMCC 3.19 assessed as fractional inhibitory concentration index incubated for 24 hrs in presence of fluconazole by checkerboard broth microdilution method; format: functional
Aspergillus flavus [24] = experiment: Additive antifungal activity against Aspergillus flavus ATCC 16870 assessed as fractional inhibitory concentration index incubated for 24 hrs in presence of polyoxin B by checkerboard broth microdilution method; format: functional
Cryptococcus neoformans [25] = experiment: Additive antifungal activity against Cryptococcus neoformans ATCC 32719 assessed as fractional inhibitory concentration index incubated for 24 hrs in presence of fluconazole by checkerboard broth microdilution method; format: functional
Cryptococcus neoformans [26] = experiment: Antifungal activity against Cryptococcus neoformans ATCC 32719 assessed as inhibition of cell wall synthesis incubated for 24 hrs in absence of sorbitol; format: functional
Candida albicans [27] = experiment: Synergistic antifungal activity against Candida albicans ATCC 76615 assessed as fluconazole MIC incubated for 24 hrs in by checkerboard broth microdilution method; format: functional
Cryptococcus neoformans [28] = experiment: Additive antifungal activity against Cryptococcus neoformans ATCC 32719 assessed as fractional inhibitory concentration index incubated for 24 hrs in presence of polyoxin B by checkerboard broth microdilution method; format: functional
Aspergillus flavus [29] = experiment: Synergistic antifungal activity against Aspergillus flavus ATCC 16870 assessed as fractional inhibitory concentration index incubated for 24 hrs in presence of fluconazole by checkerboard broth microdilution method; format: functional
Aspergillus fumigatus [30] = experiment: Synergistic antifungal activity against Aspergillus fumigatus GIMCC 3.19 assessed as fractional inhibitory concentration index incubated for 24 hrs in presence of polyoxin B by checkerboard broth microdilution method; format: functional
Candida albicans [31] = experiment: Antifungal activity against Candida albicans ATCC 76615 assessed as inhibition of cell wall synthesis incubated for 24 hrs in absence of sorbitol; format: functional
Aspergillus flavus [32] = experiment: Antifungal activity against Aspergillus flavus ATCC 16870 assessed as fungal growth inhibition incubated for 24 hrs by two-fold serial dilution method; format: functional
Cryptococcus neoformans [33] = experiment: Antifungal activity against Cryptococcus neoformans ATCC 32719 assessed as inhibition of cell wall synthesis incubated for 24 hrs in presence of sorbitol; format: functional
Aspergillus flavus [34] = experiment: Antifungal activity against Aspergillus flavus ATCC 16870 assessed as inhibition of cell wall synthesis incubated for 24 hrs in presence of sorbitol; format: functional
Aspergillus flavus [35] = experiment: Additive antifungal activity against Aspergillus flavus ATCC 16870 assessed as fractional inhibitory concentration index incubated for 24 hrs in presence of fluconazole by checkerboard broth microdilution method; format: functional
Aspergillus fumigatus [36] = experiment: Additive antifungal activity against Aspergillus fumigatus GIMCC 3.19 assessed as fractional inhibitory concentration index incubated for 24 hrs in presence of polyoxin B by checkerboard broth microdilution method; format: functional
Aspergillus fumigatus [37] = experiment: Additive antifungal activity against Aspergillus fumigatus GIMCC 3.19 assessed as fractional inhibitory concentration index incubated for 24 hrs in presence of fluconazole by checkerboard broth microdilution method; format: functional

Row | SMILES | MIC (Aspergillus flavus [1]) [µg/mL] | MIC (Aspergillus flavus [2]) [µg/mL] | MIC (Cryptococcus neoformans [3]) [µg/mL] | MIC (Cryptococcus neoformans [4]) [µg/mL] | MIC (Aspergillus flavus [5]) [µg/mL] | MIC (Candida albicans [6]) [µg/mL] | MIC (Aspergillus fumigatus [7]) [µg/mL] | MIC (Cryptococcus neoformans [8]) [µg/mL] | MIC (Cryptococcus neoformans [9]) [µg/mL] | MIC (Aspergillus flavus [10]) [µg/mL] | inhibition (Candida tropicalis) [%] | MIC (Candida albicans [11]) [µg/mL] | MIC (Aspergillus fumigatus [12]) [µg/mL] | MIC (Aspergillus fumigatus [13]) [µg/mL] | MIC (Aspergillus fumigatus [14]) [µg/mL] | MIC (Candida albicans [15]) [µg/mL] | MIC (Candida albicans [16]) [µg/mL] | MIC (Candida albicans [17]) [µg/mL] | fractional inhibitory concentration index (FICI) (Candida albicans [18]) | IC50 [19] [µM] | also measured
1 | O=C(/C=C/C(=O)Nc1ccccc1[N+](=O)[O-])Nc1ccc2c(c1)C(=O)NC1(CCSC1)N2 (stereo not given) | 16 | 2 | 0.5 | 8 (≈ 17.6 µM) | 16 (≈ 35.3 µM) | 1 (≈ 2.21 µM) | 1 | 4 (≈ 8.82 µM) | 16 | 8 (≈ 17.6 µM) | 81.9 | 8 (≈ 17.6 µM) | 64 | 1 (≈ 2.21 µM) | 4 (≈ 8.82 µM) | 4 | 128 | 8 (≈ 17.6 µM) | 0.75 | 102 | MIC (Aspergillus fumigatus [20]): 8 µg/mL (≈ 17.6 µM); fractional inhibitory concentration index (FICI) (Candida albicans [21]): 1.125; MIC (Aspergillus fumigatus [22]): 2 µg/mL; fractional inhibitory concentration index (FICI) (Aspergillus fumigatus [23]): 0.375; fractional inhibitory concentration index (FICI) (Aspergillus flavus [24]): 1.125; fractional inhibitory concentration index (FICI) (Cryptococcus neoformans [25]): 1.125; MIC (Cryptococcus neoformans [26]): 8 µg/mL (≈ 17.6 µM); MIC (Candida albicans [27]): 2 µg/mL; fractional inhibitory concentration index (FICI) (Cryptococcus neoformans [28]): 1.5; fractional inhibitory concentration index (FICI) (Aspergillus flavus [29]): 1; fractional inhibitory concentration index (FICI) (Aspergillus fumigatus [30]): 0.625; MIC (Candida albicans [31]): 8 µg/mL (≈ 17.6 µM); MIC (Aspergillus flavus [32]): 1 µg/mL (≈ 2.21 µM); MIC (Cryptococcus neoformans [33]): 128 µg/mL; MIC (Aspergillus flavus [34]): 128 µg/mL
2 | Cc1ccc([N+](=O)[O-])cc1NC(=O)/C=C/C(=O)Nc1ccc2c(c1)C(=O)NC1(CCSC1)N2 (stereo not given) | 2 | 1 | 2 | 32 (≈ 68.4 µM) | 32 (≈ 68.4 µM) | 2 (≈ 4.28 µM) | 1 | 8 (≈ 17.1 µM) | 16 | 16 (≈ 34.2 µM) | 77.4 | 16 (≈ 34.2 µM) | 128 | 16 (≈ 34.2 µM) | 16 (≈ 34.2 µM) | 2 | 128 | 16 (≈ 34.2 µM) | 0.5 | 123 | fractional inhibitory concentration index (FICI) (Aspergillus flavus [35]): 1.25; fractional inhibitory concentration index (FICI) (Aspergillus fumigatus [36]): 1.125; fractional inhibitory concentration index (FICI) (Aspergillus fumigatus [37]): 1.125; MIC (Aspergillus fumigatus [20]): 16 µg/mL (≈ 34.2 µM); fractional inhibitory concentration index (FICI) (Candida albicans [21]): 1.5; MIC (Aspergillus fumigatus [22]): 2 µg/mL; fractional inhibitory concentration index (FICI) (Aspergillus flavus [24]): 1.125; fractional inhibitory concentration index (FICI) (Cryptococcus neoformans [25]): 1.5; MIC (Cryptococcus neoformans [26]): 16 µg/mL (≈ 34.2 µM); MIC (Candida albicans [27]): 2 µg/mL; fractional inhibitory concentration index (FICI) (Cryptococcus neoformans [28]): 1.5; MIC (Candida albicans [31]): 8 µg/mL (≈ 17.1 µM); MIC (Aspergillus flavus [32]): 16 µg/mL (≈ 34.2 µM); MIC (Cryptococcus neoformans [33]): 128 µg/mL; MIC (Aspergillus flavus [34]): 256 µg/mL
